Among the test systems are ACHN renal; A549 NSCLC; HOP-92 NSCLC; SW-620 colon; UACC-62 melanoma; HL-60(TB) leukemia; U251 CNS; COLO 205 colon; EKVX NSCLC; SF-268 CNS.
What all share (assay): inhibition of tumour cell growth, NCI panel, 48 h

Values joined by “and” are separate entries in the source; they are usually repeats but may differ in a detail not shown here. Equal entries are not always repeated.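 Results reflect a 48-hour exposure of cells in 96-well plates to compound at five concentrations. Definition used: TGI = concentration required for complete inhibition of growth.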 A value given as a limit tells only on which side of the number the result lay.

Consider `CN(C)CCCN1c2ccc([N+](=O)[O-])cc2CCc2cc([N+](=O)[O-])ccc21`, for which the TGI in the experiment on ACHN renal was 23.5 µM and 29 µM; in the experiment with A549 NSCLC, 32.7 µM and 31.5 µM; in the experiment with HOP-92 NSCLC, 20 µM and 18 µM; in the experiment on SW-620 colon, 34 µM and 33.2 µM; with UACC-62 melanoma, 26.3 µM and 28.2 µM; with HL-60(TB) leukemia it was 31 µM and 30.1 µM. In addition, the TGI in the experiment with U251 CNS is 30.2 µM and 27.6 µM; in the experiment on COLO 205 colon, 32 µM and 29.4 µM; with EKVX NSCLC it was 28.5 µM and 29.4 µM; in the experiment on SF-268 CNS it was 30.2 µM and 29 µM.
For the compound `C[N+](C)(C)CCN[N+]1(C)CCCc2ccccc21` (stereo not given), the TGI with ACHN renal, in the experiment with A549 NSCLC, with HOP-92 NSCLC, in the experiment with SW-620 colon, in the experiment with UACC-62 melanoma and in the experiment with HL-60(TB) leukemia was more than 100 µM each time. Further, the TGI in the experiment on U251 CNS, in the experiment with COLO 205 colon, in the experiment with EKVX NSCLC and in the experiment with SF-268 CNS was more than 100 µM each time.
`CC1(C=O)CCC23COC4(CCC5C6(C)CCC(OC7OCC(OC8OC(CO)C(O)C(OC9OC(CO)C(O)C(O)C9O)C8OC8OCC(O)C(O)C8O)C(O)C7OC7OC(CO)C(O)C(O)C7O)C(C)(C)C6CCC5(C)C4(C)CC2O)C3C1` (stereo not given): the TGI in the experiment on ACHN renal came out at 2.57 µM; with A549 NSCLC, 3.53 µM; in the experiment with HOP-92 NSCLC it was 1.53 µM; with SW-620 colon, 3.14 µM; in the experiment with UACC-62 melanoma it was 3.17 µM; with HL-60(TB) leukemia, 1.41 µM. Also, the TGI with U251 CNS is more than 100 µM; with COLO 205 colon, 2.56 µM; in the experiment on EKVX NSCLC, 2.89 µM; in the experiment on SF-268 CNS, 2.47 µM.
In the case of `Cc1c2cc[n+](C)cc2c(C)c2c1oc1ccccc12`, the TGI in the experiment with ACHN renal was more than 100 µM; in the experiment with A549 NSCLC it was 36.5 µM; in the experiment with HOP-92 NSCLC, 32.7 µM; in the experiment with SW-620 colon, 51.4 µM; in the experiment with UACC-62 melanoma it was 16.5 µM; with HL-60(TB) leukemia, more than 73.2 µM. In addition, the TGI in the experiment with U251 CNS was 3.37 µM; in the experiment on COLO 205 colon it was 14.8 µM; in the experiment with EKVX NSCLC, more than 42.3 µM; with SF-268 CNS, 2.71 µM.
Take `CCOP(=O)(OCC)C(Nc1cccc(F)c1)c1ccc(N(C)C)cc1` (stereo not given): the TGI in the experiment on ACHN renal, with A549 NSCLC, in the experiment on HOP-92 NSCLC, in the experiment with SW-620 colon, with UACC-62 melanoma and with HL-60(TB) leukemia was more than 100 µM in each case. Further, the TGI in the experiment on U251 CNS, in the experiment on COLO 205 colon, in the experiment with EKVX NSCLC and in the experiment on SF-268 CNS was more than 100 µM throughout.

For the origin of these results see PubChem BioAssay (NCI).
